This is an account of results in paper PMC5515969, “Effects of 31 FDA approved small-molecule kinase inhibitors on isolated rat liver mitochondria” (Archives of Toxicology, 2016).

Where two headings read alike, the source gives them in different places.

The nature of data set [1]: Solubility of DMSO stock for 100X/50X Cmax testing. It counts as physicochemical. The conditions noted are these: precipitation of DMSO stock. The source says: (§1) Supplement 204_2016_1918_MOESM3_ESM.xlsx, sheet "Sheet1" | column: 100 Cmax; 50 Cmax; note
The subject of data set [2] is isolated rat liver mitochondria. The data set is described as follows: Mitochondrial swelling (absorbance at 535 nm). As to Swelling 5XCmax: key: 0 indicates that the drug had no effects (negative). The data set is classed as biochemical.
The test system is the same in data set [3]. The data set is described as follows: Mitochondrial toxicity, any endpoint, intact mitochondria and submitochondrial particles. It counts as biochemical. The conditions noted are these: for mitochondrial injury: concentrations equal to 100-fold Cmax. Put shortly: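 Rat liver mitochondria isolated by differential centrifugation in sucrose/Tris-MOPS/EGTA buffer pH 7.4, adjusted to 1 mg/ml protein before treatment. Kinase inhibitors added at 1:1000 dilution of stock; final DMSO 0.1%, with 0.1% DMSO controls.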

For data set [4] the following is noted: ref product labeling; cited from earlier work.
Data set [5] concerns RCC IV. Briefly: RCC IV activity in submitochondrial particles. The data set is classed as biochemical, rat. On the set-up: key to RCC IV at 50XCmax / RCC IV at 100XCmax: activity relative to DMSO-treated controls (control set as 1 = 100%). Put shortly:
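Kinase inhibitors were preincubated 15 min with submitochondrial particles (1 mg/ml) before complex activities were measured. RCC I was the rotenone-sensitive portion (activity without minus with rotenone). RCC I/V was read at 340 nm and RCC II at 600 nm every 1 min for 6 min. RCC III and IV were read at 550 nm every 10 s for 2 min. Activities are normalized to DMSO controls set as 1.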

The subject of data set [6] is RCC I–V. The data set is described as follows: Activities of RCC I–V, overall statements. The note with it: submitochondrial particles. The data set is classed as biochemical, rat. Put shortly: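 Absorbance kinetics: A340 (RCC I, V) and A600 (RCC II) read each minute over 6 min, A550 (RCC III, IV) every 10 s over 2 min; RCC I taken as […]. Particles (1 mg/ml) pretreated 15 min with compound; DMSO-treated activity = 1.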

The nature of data set [7]: Solubility of drug in DMSO stock / reaction buffer at multiples of Cmax. It counts as physicochemical.
Text: as §1

The conditions of data set [8]: cited from earlier work.
Details of data set [9]: method as in product labeling. The note with it: ref product labeling, cited from earlier work.
Setting [10] is: difference in signal between KI and DMSO treated samples at the end of experiments.

Consider `CC[C@H](Nc1ncnc2[nH]cnc12)c1nc2cccc(F)c2c(=O)n1-c1ccccc1` [Idelalisib], for which, in [1], the “note (DMSO stock)” value is given as 464 mM will precipitate. In addition, the “Swelling 1XCmax” value in [2] (setting [10]) is given as 0. Moreover, in data set [2] (2.5XCmax, difference in signal between KI and DMSO treated samples at the end of experiments), the “Swelling 2.5XCmax” value stood at 0. Further, in data set [2] (5XCmax, difference in signal between KI and DMSO treated samples at the end of experiments), the “Swelling 5XCmax” value amounted to 0. Also, in [2] (10XCmax, difference in signal between KI and DMSO treated samples at the end of experiments), the “Swelling 10XCmax” value came out at 0. Further, in data set [2] (20XCmax, difference in signal between KI and DMSO treated samples at the end of experiments), the “Swelling 20XCmax” value came to 0. Also, the “Swelling 30XCmax” value in [2] (30XCmax, difference in signal between KI and DMSO treated samples at the end of experiments) is given as 0. The “Swelling 50XCmax” value in data set [2] (50XCmax, difference in signal between KI and DMSO treated samples at the end of experiments) was 0. Moreover, the “Swelling 100XCmax” value in data set [2] (100XCmax, difference in signal between KI and DMSO treated samples at the end of experiments) came out at 0. In [3], the mitochondrial injury result is reported as “mitochondrial injury was induced”. In addition, the “Potential for cardiotoxicity (based on labeling)” value in data set [4] is 0. Moreover, in data set [5] (50XCmax, DMSO treated samples set as 1, in %), the “RCC IV at 50XCmax” value is 0.
Consider `CNC(=O)c1cc(Oc2ccc(NC(=O)Nc3ccc(Cl)c(C(F)(F)F)c3)c(F)c2)ccn1` [Regorafenib], for which the “lowest concentration inhibiting RCCs” value in [6] was determined as 10 fold Cmax. The RCCs inhibited entry in data set [6] (up to 100-fold Cmax or highest testable concentration) is on record as “RCC II”. In addition, the “note (solubility)” value in data set [7] was found to be 808 mM will precipitate. Also, the “lowest concentration causing mitochondrial swelling” value in [2] is listed as “onefold”. Moreover, in [2] (setting [10]), the “Swelling 1XCmax” value is 0.46±0.03. In data set [2] (onefold Cmax), the mitochondrial swelling entry is on record as “almost maximal swelling”. Besides, the “effect on mitochondrial swelling” value in [2] (up to 100-fold Cmax or highest testable concentration, 25 µM calcium chloride) is given as “significant mitochondrial swelling”. Moreover, the “lowest concentration causing significant mitochondrial toxicity” value in [3] (any endpoint) is “equal to the Cmax”. The mitochondrial injury entry in data set [3] is on record as “mitochondrial injury was induced”. Further, the “RCC activity IV” value in data set [5] (10-fold Cmax, 15 min, DMSO-treated = 100) is 95.37 ± 6.45 % of control. The “DILI potential (based on labeling)” value was 1 in data set [8] (1 = DILI positive, 0 = negative, ref product labeling) and 1 in data set [8] (ref FDA product labeling). For the same molecule, the “Labeling for DILI” value in data set [8] (BBW: black box warning, W&P: Warnings and Precautions, ref product labeling) was “BBW: fatal DILI”. Besides, in [8] (W&P warnings and precautions, BBW black box warnings, ref FDA product labeling), the “labeling for DILI” value was “BBW: fatal DILI”. For the same molecule, the Labeling for cardiotoxicity entry in [9] (BBW: black box warning, W&P: Warnings and Precautions) was “W&P: Cardiac Ischemia and Infarction”. The “Potential for cardiotoxicity (based on labeling)” value in data set [9] is recorded as 1.
